Data on 26 compounds can be found in patent US8188090B2, “Naphthylacetic acids” (Hoffman-La Roche Inc., priority 2008, dated 2012).

The target in the test is T1, human CRTH2 (Homo sapiens, UniProt Q9Y5Y4).
T1 sequence (Q9Y5Y4 1-395): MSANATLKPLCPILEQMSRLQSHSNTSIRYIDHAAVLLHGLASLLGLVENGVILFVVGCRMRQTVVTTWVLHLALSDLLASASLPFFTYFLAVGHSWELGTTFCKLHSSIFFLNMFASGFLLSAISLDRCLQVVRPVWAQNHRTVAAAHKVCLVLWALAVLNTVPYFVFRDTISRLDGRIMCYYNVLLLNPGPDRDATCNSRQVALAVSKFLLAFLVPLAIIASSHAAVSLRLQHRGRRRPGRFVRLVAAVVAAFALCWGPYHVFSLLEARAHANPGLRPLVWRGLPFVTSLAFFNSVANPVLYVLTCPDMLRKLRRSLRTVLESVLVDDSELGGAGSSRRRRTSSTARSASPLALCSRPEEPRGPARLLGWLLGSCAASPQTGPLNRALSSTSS
Description: Human CRTH2 Receptor Binding Assay (whole cell, [3H]ramatroban). On the set-up: expressed in transfected cells; host or cells: CHO-K1. The note with it: whole CHO-K1 cells stably expressing human CRTH2 and G-alpha16; 20 nM [3H]ramatroban; 1 hour, room temperature. From the text: A whole cell receptor binding assay using [^3H]ramatroban as the competing radioactive ligand was employed to evaluate the compound binding activity to human CRTH2. The radioactive ligand [^3H]ramatroban was synthesized according to Sugimoto et. al. (Eur. J. Pharmacol. 524, 30-37, 2005) to a specific activity of 42 Ci/mmol.
A cell line stably expressing human CRTH2 was established by transfecting CHO-K1 cells with two mammalian expression vectors that harbored human CRTH2 and G-alpha16 cDNAs, respectively, using FuGene® 6 transfection reagent (from Roche). Stable clones expressing CRTH2 were selected by staining each clone with BM16 (BD Pharmingen™ from BD Biosciences, a division of Becton, Dickinson and Company), which is a rat monoclonal antibody to human CRTH2. The cells were maintained as monolayer cultures in Ham's F-12 medium containing 10% fetal bovine serum, 100 units/mL penicillin, 100 μg/mL streptomycin, 2 mM glutamine, 0.5 mg/mL G418 (geneticin) for CRTH2, and 0.2 mg/mL hygromycin-B (for G-alpha 16). For whole cell receptor binding assay, the monolayer cells were rinsed once with PBS (phosphate buffered saline), dissociated using ethylenediaminetetraacetate (Versene™ EDTA from Lonza Inc.), and suspended in PBS containing 10 mM MgCl2 and 0.06% BSA (bovine serum albumin) at 1.5×10^6 cells/mL.
The binding reactions (0.2 mL) were performed in 96-well plates at room temperature in PBS containing 1.5×10^5 cells, 10 mM MgCl2, 0.06% BSA, 20 nM [^3H]ramatroban, and test compound at various concentrations. After 1 hour of binding reactions, the cells were harvested on GF™/B filter microplates (microtiter plates with embedded glass fiber from PerkinElmer, Inc.) and washed 5 times with PBS using a Filtermate™ Harvester (a cell harvester that harvests and washes cells from microplates from PerkinElmer, Inc.). The radioactivities bound to the cells were determined using a microplate scintillation counter (TopCount® NXT, from PerkinElmer, Inc.) after adding 50 μL of Microscint™ 20 scintillation fluid (from PerkinElmer, Inc.) to each well of the filter plates. The radioactivity from non-specific binding was determined by replacing compound with 10 μM of 15(R)-15-methyl PGD2 (from Cayman Chemical Company) in the reaction mixtures. The radioactivity bound to the cells in the absence of compound (total binding) was determined by replacing compound with 0.25% of DMSO (dimethyl sulfoxide) in the reaction mixture. Specific binding data were obtained by subtracting the radioactivity of non-specific binding from each binding data.
The IC50 value is defined as the concentration of the tested compound that is required for 50% inhibition of total specific binding. In order to calculate the IC50 value, the percent inhibition data were determined for 7 concentrations for each compound. The percent inhibition for a compound at each concentration was calculated according to the following formula, [1-(specific binding in the presence of compound)/(total specific binding)]×100. The IC50 value was then obtained by fitting the percent inhibition data to a sigmoidal dose-response (4 parameter logistic) model in the XLfit® software Excel add-in program [from ID Business Solutions Ltd., model 205, where F(x)=(A+(B−A)/(1+((C/x)^D)))].

A word on the IC50: it is the concentration that gives 50% inhibition. Low values mean higher potency, high ones lower potency.

For the compound `Cc1c(CC(=O)O)cc2ccc(F)cc2c1C(=O)N1CCN(c2cccc(C(F)(F)F)c2)CC1` [Example 2-7, {6-Fluoro-3-methyl-4-[4-(3-trifluoromethyl-phenyl)-piperazine-1-carbonyl]-naphthalen-2-yl}-acetic acid], the IC50 turned out to be 57.1 nM.

For `COc1cccc(N2CCN(C(=O)c3c(C)c(CC(=O)O)cc4ccc(F)cc34)CC2)c1` [Example 2-9, {6-Fluoro-4-[4-(3-methoxy-phenyl)-piperazine-1-carbonyl]-3-methyl-naphthalen-2-yl}-acetic acid], the IC50 came out at 63.1 nM.

Regarding `Cc1c(CC(=O)O)cc2ccc(F)cc2c1C(=O)N1CCN(c2cc(C(F)(F)F)cc(C(F)(F)F)c2)CC1` [Example 2-11, {4-[4-(3,5-Bis-trifluoromethyl-phenyl)-piperazine-1-carbonyl]-6-fluoro-3-methyl-naphthalen-2-yl}-acetic acid], the IC50 worked out at 201 nM.

`COc1ccc(N2CCN(C(=O)c3c(C)c(CC(=O)O)cc4ccc(F)cc34)CC2)cc1` [Example 2-12, {6-Fluoro-4-[4-(4-methoxy-phenyl)-piperazine-1-carbonyl]-3-methyl-naphthalen-2-yl}-acetic acid] had a 50% inhibitory concentration (IC50) of 106 nM.

Consider `Cc1c(CC(=O)O)cc2ccc(F)cc2c1C(=O)N1CCN(c2ccc(F)cc2F)CC1` [Example 2-13, {4-[4-(2,4-Difluoro-phenyl)-piperazine-1-carbonyl]-6-fluoro-3-methyl-naphthalen-2-yl}-acetic acid], for which the IC50 was 139 nM.

In turn, `COc1cc(OC)cc(N2CCN(C(=O)c3c(C)c(CC(=O)O)cc4ccc(F)cc34)CC2)c1` [Example 2-14, {4-[4-(3,5-Dimethoxy-phenyl)-piperazine-1-carbonyl]-6-fluoro-3-methyl-naphthalen-2-yl}-acetic acid] displayed an IC50 of 65.7 nM.

As for `Cc1ccc(N2CCN(C(=O)c3c(C)c(CC(=O)O)cc4ccc(F)cc34)CC2)cc1` [Example 2-16, [6-Fluoro-3-methyl-4-(4-p-tolyl-piperazine-1-carbonyl)-naphthalen-2-yl]-acetic acid], the IC50 came to 26.8 nM.

In the case of `Cc1c(CC(=O)O)cc2ccc(F)cc2c1C(=O)N1CCN(c2cc(Cl)cc(Cl)c2)CC1` [Example 2-17, {4-[4-(3,5-Dichloro-phenyl)-piperazine-1-carbonyl]-6-fluoro-3-methyl-naphthalen-2-yl}-acetic acid], the IC50 turned out to be 21.9 nM.

Turning to `Cc1c(CC(=O)O)cc2ccc(F)cc2c1C(=O)N1CCN(c2ccc(Cl)cc2)CC1` [Example 2-18, {4-[4-(4-Chloro-phenyl)-piperazine-1-carbonyl]-6-fluoro-3-methyl-naphthalen-2-yl}-acetic acid], the IC50 came to 9.4 nM.

As to `Cc1c(CC(=O)O)cc2ccc(F)cc2c1C(=O)N1CCN(c2ccc(C(F)(F)F)cc2)CC1` [Example 2-19, {6-Fluoro-3-methyl-4-[4-(4-trifluoromethyl-phenyl)-piperazine-1-carbonyl]-naphthalen-2-yl}-acetic acid], the IC50 came out at 10 nM.

With `Cc1c(CC(=O)O)cc2ccc(F)cc2c1C(=O)N1CCN(c2ccccc2Cl)CC1` [Example 2-20, {4-[4-(2-Chloro-phenyl)-piperazine-1-carbonyl]-6-fluoro-3-methyl-naphthalen-2-yl}-acetic acid], the IC50 amounted to 127 nM.

Turning to `Cc1c(CC(=O)O)cc2ccc(F)cc2c1C(=O)N1CCN(c2cccc(Cl)c2)CC1` [Example 2-21, {4-[4-(3-Chloro-phenyl)-piperazine-1-carbonyl]-6-fluoro-3-methyl-naphthalen-2-yl}-acetic acid], the concentration for half-maximal inhibition (IC50) was found to be 18.9 nM.

Compound `Cc1c(CC(=O)O)cc2ccc(F)cc2c1C(=O)N1CCN(c2ccc(C(F)(F)F)cn2)CC1` [Example 2-22, {6-Fluoro-3-methyl-4-[4-(5-trifluoromethyl-pyridin-2-yl)-piperazine-1-carbonyl]-naphthalen-2-yl}-acetic acid] registered an IC50 of 11.2 nM.

In the case of `Cc1c(CC(=O)O)cc2ccc(F)cc2c1C(=O)N1CCN(c2c(Cl)cncc2Cl)CC1` [Example 2-23, {4-[4-(3,5-Dichloro-pyridin-4-yl)-piperazine-1-carbonyl]-6-fluoro-3-methyl-naphthalen-2-yl}-acetic acid], the concentration for half-maximal inhibition (IC50) is 63.5 nM.

The compound `Cc1c(CC(=O)O)cc2ccc(F)cc2c1C(=O)N1CCN(c2ccc(C#N)cc2)CC1` [Example 2-24, {4-[4-(4-Cyano-phenyl)-piperazine-1-carbonyl]-6-fluoro-3-methyl-naphthalen-2-yl}-acetic acid] came in with an IC50 of 22 nM.

On to `CC(C)(C)OC(=O)N1CCC(Oc2cc(CC(=O)O)cc3ccc(F)cc23)CC1` [Example 3-1, 4-(3-Carboxymethyl-7-fluoro-naphthalen-1-yloxy)-piperidine-1-carboxylic acid tert-butyl ester], for which the IC50 was found to be 45.1 nM.

As to `CS(=O)(=O)N1CCC(Oc2cc(CC(=O)O)cc3ccc(F)cc23)CC1` [Example 4-1, [6-Fluoro-4-(1-methanesulfonyl-piperidin-4-yloxy)-naphthalen-2-yl]-acetic acid], the IC50 was determined as 9.3 nM.

As for `CC(C)S(=O)(=O)N1CCC(Oc2cc(CC(=O)O)cc3ccc(F)cc23)CC1` [Example 4-3, {6-Fluoro-4-[1-(propane-2-sulfonyl)-piperidin-4-yloxy]-naphthalen-2-yl}-acetic acid], the IC50 was 30.5 nM.

Compound `O=C(O)Cc1cc(OC2CCN(S(=O)(=O)C3CC3)CC2)c2cc(F)ccc2c1` [Example 4-4, [4-(1-Cyclopropanesulfonyl-piperidin-4-yloxy)-6-fluoro-naphthalen-2-yl]-acetic acid] came in with an IC50 of 25.4 nM.

For the compound `O=C(O)Cc1cc(OC2CCN(S(=O)(=O)C3CCCC3)CC2)c2cc(F)ccc2c1` [Example 4-5, [4-(1-Cyclopentanesulfonyl-piperidin-4-yloxy)-6-fluoro-naphthalen-2-yl]-acetic acid], the IC50 is 9.9 nM.

`O=C(O)Cc1cc(OC2CCN(S(=O)(=O)c3ccccc3)CC2)c2cc(F)ccc2c1` [Example 4-6, [4-(1-Benzenesulfonyl-piperidin-4-yloxy)-6-fluoro-naphthalen-2-yl]-acetic acid] showed a concentration for half-maximal inhibition (IC50) of 3.2 nM.

Compound `O=C(O)Cc1cc(OC2CCN(S(=O)(=O)c3cccc(F)c3)CC2)c2cc(F)ccc2c1` [Example 4-7, {6-Fluoro-4-[1-(3-fluoro-benzenesulfonyl)-piperidin-4-yloxy]-naphthalen-2-yl}-acetic acid] showed an IC50 of 5 nM.

In turn, `O=C(O)Cc1cc(OC2CCN(S(=O)(=O)c3ccc(F)cc3)CC2)c2cc(F)ccc2c1` [Example 4-8, {6-Fluoro-4-[1-(4-fluoro-benzenesulfonyl)-piperidin-4-yloxy]-naphthalen-2-yl}-acetic acid] registered an IC50 of 2.4 nM.

In turn, `O=C(O)Cc1cc(OC2CCN(S(=O)(=O)Cc3ccccc3)CC2)c2cc(F)ccc2c1` [Example 4-10, [6-Fluoro-4-(1-phenylmethanesulfonyl-piperidin-4-yloxy)-naphthalen-2-yl]-acetic acid] came in with an IC50 of 2.7 nM.

In the case of `CCC(=O)N1CCC(Oc2cc(CC(=O)O)cc3ccc(F)cc23)CC1` [Example 5-2, [6-Fluoro-4-(1-propionyl-piperidin-4-yloxy)-naphthalen-2-yl]-acetic acid], the IC50 came out at 120 nM.

As to `CC(C)C(=O)N1CCC(Oc2cc(CC(=O)O)cc3ccc(F)cc23)CC1` [Example 5-3, [6-Fluoro-4-(1-isobutyryl-piperidin-4-yloxy)-naphthalen-2-yl]-acetic acid], the 50% inhibitory concentration (IC50) was found to be 141 nM.
